These results are taken from publication PMC10439952, “JT002, a small molecule inhibitor of the NLRP3 inflammasome for the treatment of autoinflammatory disorders” (Scientific Reports, 2023).

The structures appear in SMILES notation. Some results are limits rather than exact numbers.

The target in one test is NLRP3 inflammasome (Homo sapiens, UniProt Q96P20). Kind of test: Inhibition of IL-1β production in LPS stimulated (alternative pathway) human whole blood. It counts as cell-based. The procedure:
(§1) Inflammasome activation and whole blood assays were essentially carried out as described earlier. Details can be found in the supplementary information section accompanying this publication. A protocol for blood draws from healthy volunteers and use of the blood in preclinical assays was approved by Western Institutional Review Board, Inc (Puyallup, WA, USA). Informed consent was obtained from each donor prior to the first blood draw.
Cell viability was determined by addition of an equal volume of CellTiter-Glo® 2.0 reagent (Promega) to the remaining cells/supernatant in each well. Intracellular Caspase-1 activity was measured using the Caspase-Glo® assay (Promega) according to the manufacturer’s instructions. The biochemical capsase-1 assay was conducted at Reaction Biology Corporation (Malvern, USA). Human IL-1β, IL-1α, and TNFα and mouse IL-1β were measured in cell culture supernatants using homogeneous time resolved fluorescence assay kits (HTRF, Cisbio, Codolet, France). Human IL-18 was measured in cell culture supernatants using an ELISA kit (R&D Systems, Minneapolis, MN, USA). Plasma IL-1β concentrations were determined by Quantikine® ELISA (R&D Systems, Minneapolis, MN). […]
flagellin, prepared in Opt iMEM and combined with Lipofectamine 2000. […]

The next test relates to TNFα production. Briefly: TNFα production in mouse BMDMs stimulated by LPS + nigericin. In kind it is cell-based. The conditions noted are these: Mouse BMDM, read-out: Geo Av IC50, TNFα.
Text: as §1
4H). MS: m/z 433.1 (M+H+).
Inflammasome activation.PBMCs (iXCells Biotechnologies, San Diego, USA) were thawed the day before the assay and seeded in complete medium (RPMI 1640 medium with GlutaMAX, supplemented with an additional 2.5 g/L D-glucose, 10% Fet al Bovine Serum, 100 mM Sodium Pyruvate, 1% Penicillin/Streptomycin, 10 mM HEPES and 0.05 mM β -mercaptoethanol) in polystyrene V-bottom 96-well plates at 5x10^4 cells per well and incubated overnight at 37°C with 5% CO 2. […]
flagellin, prepared in Opt iMEM and combined with Lipofectamine 2000. […] After priming Nlrp3 -/- mBMDMs with 100 ng/mL of LPS for 3- 5 h, cells were exposed to 100 ng/mL L18- MDP and incubated overnight.At the end of the incubation period of the assays above, plates were briefly centri fuged and hal f of the cell culture supern atant remo ved and either analysed i mmediately or stored at - 80°C for subs equent cytokine […]

Chain of NLRP3 inflammasome (Q96P20 whole entry): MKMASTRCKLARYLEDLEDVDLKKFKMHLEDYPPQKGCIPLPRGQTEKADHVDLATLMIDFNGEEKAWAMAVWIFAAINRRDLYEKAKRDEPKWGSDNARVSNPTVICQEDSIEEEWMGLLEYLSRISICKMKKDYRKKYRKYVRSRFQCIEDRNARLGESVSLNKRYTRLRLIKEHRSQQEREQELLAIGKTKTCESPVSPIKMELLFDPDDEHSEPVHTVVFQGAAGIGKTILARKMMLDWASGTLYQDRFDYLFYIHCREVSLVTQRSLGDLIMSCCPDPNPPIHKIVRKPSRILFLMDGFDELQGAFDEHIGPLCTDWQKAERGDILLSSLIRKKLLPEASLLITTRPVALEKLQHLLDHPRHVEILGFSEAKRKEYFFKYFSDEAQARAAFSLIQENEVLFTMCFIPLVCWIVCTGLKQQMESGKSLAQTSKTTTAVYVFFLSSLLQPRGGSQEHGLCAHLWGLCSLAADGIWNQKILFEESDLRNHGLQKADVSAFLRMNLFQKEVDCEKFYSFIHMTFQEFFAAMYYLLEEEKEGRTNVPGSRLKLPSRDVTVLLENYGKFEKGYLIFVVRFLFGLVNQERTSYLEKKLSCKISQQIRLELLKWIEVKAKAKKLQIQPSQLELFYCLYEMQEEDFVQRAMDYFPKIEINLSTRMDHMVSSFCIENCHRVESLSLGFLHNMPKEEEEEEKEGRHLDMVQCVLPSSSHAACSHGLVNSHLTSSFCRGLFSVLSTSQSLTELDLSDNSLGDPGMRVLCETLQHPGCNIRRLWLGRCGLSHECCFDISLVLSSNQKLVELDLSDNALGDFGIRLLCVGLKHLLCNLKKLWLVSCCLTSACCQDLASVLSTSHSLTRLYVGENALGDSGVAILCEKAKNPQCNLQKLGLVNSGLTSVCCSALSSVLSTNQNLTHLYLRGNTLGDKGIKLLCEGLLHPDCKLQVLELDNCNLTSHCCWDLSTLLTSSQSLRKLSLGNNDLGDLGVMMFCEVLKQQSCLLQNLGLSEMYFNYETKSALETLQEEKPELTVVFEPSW

As for `CO[C@@H]1COc2c(S(=O)(=O)NC(=O)Nc3c4c(cc5c3CCC5)CCC4)cnn2C1` [JT002], the concentration for half-maximal inhibition (IC50) was 32 nM on NLRP3 inflammasome (Human whole blood, LPS only (alternative pathway), read-out: Geo Av IC50, IL-1β) and greater than 10000 nM in the test on TNFα production. Besides, on NLRP3 inflammasome (how much lower the alternative pathway IC50 is), the “IC50 in human whole blood, alternative (LPS) versus canonical (LPS + ATP) NLRP3 pathway activation” value was “threefold more potent”.
